Assay [1] has as its system PI3Kα-WT MEFs. Description: pAKT S473 western blot, PI3Kα-WT MEFs. The format is cell-based. The following applies: Mus musculus, 0.25 h; 15 min; read-out: EC50 of pAKT^S473 induction. How it is done:
Unless otherwise indicated, western blotting was performed with ECL detection. For time course studies, A549 cells were seeded at 250,000 cells per well in 6-well plates in RPMI (10% FBS + 1 mM Na-Pyruvate + 1% P/S) and allowed to adhere overnight. The next day they were serum-starved for 4 h prior to treatment with 100 nM insulin or 5 μM 1938, for the indicated time (5 min to 48 h) at 37°C, 5% CO2. For 1938 titration assays in MEFs, cells were seeded at 150,000 cells per well in 6-well plates and allowed to adhere overnight. The next day they were serum-starved for 4 h prior to treatment with insulin (1 μM), 1938 (0.2 to 30 μM, final DMSO concentration of 1.5%) or inhibitors (final DMSO concentration of ≤1.5%) for 15 min at 37°C, 5% CO2. Cells were washed twice with cold PBS and lysed using cold RIPA buffer (25 mM Tris.HCl pH 7.6, 150 mM NaCl, 1% NP-40, 1% sodium deoxycholate, 0.1% SDS supplemented with protease/phosphatase inhibitor cocktail from Merck). To remove cell debris, homogenates were spun at 13,000 rpm for 15 min at 4°C and the supernatant fraction recovered. Protein concentration was determined by colorimetric assay (BCA assay, Promega). […]

Assay [2] has as its target LCK (Homo sapiens, UniProt P06239). Description: SelectScreen kinase profiling, LCK. Type of assay: biochemical. On the procedure:
133 protein kinases and 7 lipid kinases were counterscreened, with 1938 used at 1 μM, using the Adapta, Lantha and Z-LYTE assays (SelectScreen Kinase Profiling Service; Thermofisher – experimental details of these assays can be found here: https://www.thermofisher.com/uk/en/home/industrial/pharma-biopharma/drug-discovery-development/target-and-lead-identification-and-validation/kinasebiology/kinase-activity-assays.html. The tree represention in KinMap[59] generated courtesy of Cell Signaling Technology, Inc. (www.cellsignal.com). mTORC1 (mTOR/RAPTOR/LST8) protein complex and ATM kinase and substrates were produced as previously described[57],[60]. Screening of 1938 was conducted using SuperSep Phos-Tag 50 μmol/l 100 x 100 x 6.6 mm 17-well (192-18001/199-18011) gels. For ATM assays, 100 nM ATM was incubated for 30 min at 30°C with 5 μM GST-p53 and 1 mM ATP, in the absence or presence of 200 μM 1938 in ATM Kinase Buffer (50 mM HEPES pH 7.5, 100 mM NaCl, 10% glycerol, 2 mM […], 5 mM MgCl2). As a positive control for ATM activation, the same reaction was carried out with 100 nM ATM/5 μM GST-p53/1 mM ATP in the presence of 100 nM Mre11-Rad50-Nbs1 (MRN) complex, a known activator of ATM[61]. For mTORC1 assays, 50 nM mTORC1 complex (mTOR/LST8/RAPTOR) was incubated for 3 h at 30°C with 15 μM 4E-BP1, 10 mM MgCl2 and 250 μM ATP, in the absence or presence of 200 μM 1938. As a ‘positive’ control, a higher concentration (150 nM) of mTORC1 complex (mTOR/LST8/RAPTOR) was incubated for 3 h at 30°C with 15 μM 4E-BP1, 10 mM MgCl2 and 250 μM ATP. Kinase reactions were quenched by addition of SDS-PAGE Loading Buffer (as per manufacturer’s instructions) and freezing at -20°C before being run on the Phos-tag gels at 150 V for 90 min. Gels were then stained using InstantBlue™ Coomassie, and quantified using BioRad Image Lab Software. Kinase assays were carried out in triplicate.

Read-outs that look alike come from different tables or passages of the source.

LCK, sequence (P06239 whole entry): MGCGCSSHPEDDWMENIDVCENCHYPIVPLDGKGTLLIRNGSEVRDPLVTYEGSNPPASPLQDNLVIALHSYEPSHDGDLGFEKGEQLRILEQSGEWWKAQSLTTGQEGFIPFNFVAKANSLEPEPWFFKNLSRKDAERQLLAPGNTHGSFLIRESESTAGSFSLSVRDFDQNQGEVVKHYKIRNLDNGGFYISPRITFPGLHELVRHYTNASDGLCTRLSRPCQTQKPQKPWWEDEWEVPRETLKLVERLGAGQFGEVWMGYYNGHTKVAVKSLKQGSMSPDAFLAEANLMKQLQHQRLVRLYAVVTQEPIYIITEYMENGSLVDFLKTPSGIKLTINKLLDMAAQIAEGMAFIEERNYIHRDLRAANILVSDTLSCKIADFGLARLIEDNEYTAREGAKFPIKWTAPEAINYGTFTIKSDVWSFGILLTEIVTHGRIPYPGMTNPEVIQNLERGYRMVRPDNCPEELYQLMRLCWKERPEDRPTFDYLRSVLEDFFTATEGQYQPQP

On to `CCN1CCN(c2ccc(Nc3cc(Nc4cccc5c4N(C(C)=O)CC5)ccn3)cc2)CC1` [Compound 1938], for which, in assay [1], the EC50 lay within 2 to 4 µM. Further, the inhibition at 1 µM in assay [2] (read-out: % Inhibition Point 1) was determined as 60%; in assay [2] (read-out: % Inhibition Point 2), 57%; in assay [2] (read-out: % Inhibition mean), 58%.

The values above are taken from article PMC7614683, “A small molecule PI3Kα activator for cardioprotection and neuroregeneration” (Nature, 2023).
